Where “and” joins values, the source holds several entries; their conditions need not be identical. Equal entries are not always repeated.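 Grown in 96-well plates, cells were treated for 48 hours with each compound at five concentrations. Insufficient inhibition: endpoint recorded as highest concentration tested. GI50 is the concentration that inhibits growth by half. TGI is the concentration that stops growth completely.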 Where only a bound is given, the exact number is not on record here.

Among the test systems are SNB-75 CNS; SK-MEL-28 melanoma; SF-539 CNS; MOLT-4 leukemia; SK-MEL-2 melanoma; SF-295 CNS; A549 NSCLC; UACC-62 melanoma; COLO 205 colon; U251 CNS.
Common to all, as to experiment: DTP human tumour cell line panel, 48 h

A word on the GI50: it is the concentration giving 50% growth inhibition. By TGI is commonly meant the concentration giving total growth inhibition. High values mean less potent growth arrest, low ones more potent growth arrest. For `CCCCCCC[CH2][Sn]1([CH2]CCCCCCC)[O]C(=O)c2cccnc2[O]1`, the GI50 with SNB-75 CNS, in the assay on SK-MEL-28 melanoma, in the assay on SF-539 CNS, in the assay on MOLT-4 leukemia, in the assay on SK-MEL-2 melanoma and in the assay on SF-295 CNS was over 100 µM each time. In addition, the GI50 in the assay with A549 NSCLC, with UACC-62 melanoma, in the assay on COLO 205 colon and in the assay on U251 CNS was over 100 µM in each case. Further, the TGI in the assay on SNB-75 CNS, in the assay on SK-MEL-28 melanoma, in the assay with SF-539 CNS, in the assay on MOLT-4 leukemia, with SK-MEL-2 melanoma and in the assay with SF-295 CNS was over 100 µM throughout. Also, the TGI in the assay on A549 NSCLC, with UACC-62 melanoma, in the assay on COLO 205 colon and with U251 CNS was over 100 µM each time.
With `CC1=C(C(=O)Nc2ccc(Cl)c(C(=O)OC(C)C)c2)SCCO1`, the TGI in the assay on SNB-75 CNS was over 100 µM; in the assay on SK-MEL-28 melanoma, 99.5 µM; in the assay with SF-539 CNS it was over 97 µM; with MOLT-4 leukemia, 84.4 µM; in the assay on SK-MEL-2 melanoma it was 75.4 µM; in the assay with SF-295 CNS, over 80.7 µM. Moreover, the TGI in the assay on A549 NSCLC came to 65.8 µM; with UACC-62 melanoma, 93.2 µM; in the assay with COLO 205 colon it was 60 µM; with U251 CNS, 81.3 µM.
With `CCC(=O)c1c(C(F)(F)F)n([O-])c2cc(F)c(F)cc2[n+]1=O`, the GI50 with SNB-75 CNS is 2.58 µM; in the assay on SK-MEL-28 melanoma, 1.32 µM; in the assay on SF-539 CNS, 1.54 µM; in the assay with MOLT-4 leukemia it was 0.196 µM; with SK-MEL-2 melanoma it was 0.663 µM; in the assay on SF-295 CNS, 0.37 µM. Further, the GI50 in the assay on A549 NSCLC is 2.43 µM; in the assay with UACC-62 melanoma it was 0.571 µM; with COLO 205 colon, 0.466 µM; in the assay with U251 CNS, 1.43 µM. The concentration for total growth inhibition (TGI) in the assay on SNB-75 CNS was 4.44 µM; with SK-MEL-28 melanoma, 2.99 µM; in the assay with SF-539 CNS, 3.18 µM; in the assay with MOLT-4 leukemia, over 100 µM; in the assay with SK-MEL-2 melanoma, over 20 µM; in the assay on SF-295 CNS it was 1.67 µM. Further, the TGI amounted to 6.72 µM in the assay with A549 NSCLC, 1.33 µM in the assay on UACC-62 melanoma, 3.16 µM in the assay with COLO 205 colon and 3.39 µM with U251 CNS.
For `COc1cccc(/C=C2\COc3ccc(-c4ccccc4)cc3C2=O)c1`, the GI50 in the assay with SNB-75 CNS was 1.99 µM; with SK-MEL-28 melanoma, 1.91 µM; with SF-539 CNS, 2.05 µM; with MOLT-4 leukemia, 3.09 µM; with SK-MEL-2 melanoma, 2.38 µM; in the assay on SF-295 CNS it was 2.52 µM. Further, the GI50 in the assay with A549 NSCLC is 3.17 µM; with UACC-62 melanoma, 3.06 µM; in the assay on COLO 205 colon it was 2.18 µM; in the assay with U251 CNS, 1.56 µM. Besides, the TGI was 4.8 µM with SNB-75 CNS; 3.62 µM in the assay with SK-MEL-28 melanoma; 4.12 µM with SF-539 CNS; over 100 µM in the assay on MOLT-4 leukemia; 5.27 µM with SK-MEL-2 melanoma; 10.3 µM with SF-295 CNS. Besides, the TGI was 18.7 µM with A549 NSCLC, 12.8 µM in the assay with UACC-62 melanoma, 5.06 µM in the assay with COLO 205 colon and 3.05 µM in the assay on U251 CNS.
As to `C=CCc1cc(OC)c2c(c1)C(OC)CC(c1ccc(OC)c(OC)c1)O2` (stereo not given), the concentration for total growth inhibition (TGI) in the assay on SNB-75 CNS, in the assay with SK-MEL-28 melanoma, in the assay with SF-539 CNS, in the assay with MOLT-4 leukemia, with SK-MEL-2 melanoma and in the assay on SF-295 CNS was over 100 µM in each case. For the same compound, the TGI with A549 NSCLC, with UACC-62 melanoma, in the assay with COLO 205 colon and in the assay with U251 CNS was over 100 µM each time.
Take `Cc1ccc(S(=O)(=O)NC(CN)C(=O)O)cc1` (stereo not given): the TGI in the assay with SNB-75 CNS, in the assay with SK-MEL-28 melanoma, in the assay on SF-539 CNS, with MOLT-4 leukemia, in the assay with SK-MEL-2 melanoma and with SF-295 CNS was over 100 µM in each case. Besides, the TGI in the assay on A549 NSCLC, in the assay on UACC-62 melanoma, with COLO 205 colon and in the assay on U251 CNS was over 100 µM throughout.
As to `O=C(CN1C(=O)S/C(=C\C(Cl)=C\c2ccccc2)C1=O)NC1C=CS(=O)(=O)C1` (stereo not given), the GI50 was 0.387 µM in the assay with SNB-75 CNS; 1.81 µM in the assay with SK-MEL-28 melanoma; 2 µM in the assay on SF-539 CNS; 0.621 µM with MOLT-4 leukemia; 2.11 µM in the assay with SK-MEL-2 melanoma; 2.32 µM in the assay on SF-295 CNS. The GI50 with A549 NSCLC is 3 µM; in the assay with UACC-62 melanoma it was 1.13 µM; in the assay on COLO 205 colon it was 1.54 µM; with U251 CNS, 1.88 µM. For the same compound, the TGI in the assay on SNB-75 CNS was 12.6 µM; in the assay on SK-MEL-28 melanoma it was 3.9 µM; with SF-539 CNS, 4.76 µM; in the assay with MOLT-4 leukemia, over 100 µM; with SK-MEL-2 melanoma, 5.22 µM; in the assay on SF-295 CNS, 5.19 µM. Besides, the TGI in the assay on A549 NSCLC is over 100 µM; in the assay on UACC-62 melanoma, 3.16 µM; with COLO 205 colon, 3.76 µM; in the assay on U251 CNS it was 5.9 µM.
On to `Cc1cc([N+](=O)[O-])c2ccccc2[n+]1[O-]`, for which the GI50 in the assay on SNB-75 CNS was 0.421 µM and 0.165 µM; with SK-MEL-28 melanoma, 1.61 µM; with SF-539 CNS it was 0.303 µM and 0.214 µM; in the assay with MOLT-4 leukemia, 0.869 µM and 1.19 µM; in the assay on SK-MEL-2 melanoma, 0.209 µM and 0.212 µM; in the assay with SF-295 CNS it was 0.206 µM and 0.236 µM. For the same compound, the GI50 with A549 NSCLC is 0.245 µM and 0.204 µM; in the assay on UACC-62 melanoma, 0.252 µM and 0.254 µM; in the assay on COLO 205 colon it was 0.113 µM and 0.117 µM; in the assay with U251 CNS, 0.402 µM and 0.347 µM. For the same compound, the TGI in the assay on SNB-75 CNS was 2.09 µM and 0.722 µM; in the assay with SK-MEL-28 melanoma it was 3.9 µM and 4.54 µM; in the assay on SF-539 CNS it was 1.2 µM and 0.867 µM; with MOLT-4 leukemia it was 7.8 µM and 5.95 µM; in the assay with SK-MEL-2 melanoma, 0.471 µM and 0.404 µM; in the assay on SF-295 CNS it was 0.76 µM and 2 µM. In addition, the TGI in the assay on A549 NSCLC was 0.807 µM and 0.905 µM; with UACC-62 melanoma, 0.89 µM and 0.833 µM; with COLO 205 colon, 0.338 µM and 0.319 µM; in the assay with U251 CNS, 2.93 µM and 2.84 µM.
Regarding `NS(=O)(=O)OCCCCCCCOS(N)(=O)=O`, the TGI came to 711 µM with SNB-75 CNS; 1680 µM in the assay with SK-MEL-28 melanoma; 645 µM in the assay with SF-539 CNS; 790 µM in the assay on MOLT-4 leukemia; 836 µM in the assay with SK-MEL-2 melanoma; 1020 µM in the assay on SF-295 CNS. Further, the TGI with A549 NSCLC is 729 µM; with UACC-62 melanoma, 412 µM; in the assay on COLO 205 colon, 814 µM; in the assay on U251 CNS it was 683 µM.

Source of the values: PubChem BioAssay (NCI).
